Measured values from PMC10135569, “Does Enhanced Structural Maturity of hiPSC-Cardiomyocytes Better for the Detection of Drug-Induced Cardiotoxicity?” (Biomolecules, 2023).

Legend:
[1] = test system: hiPSC-CMs (iCell2 Cardiomyocytes) 2D monolayers; test: Contractility measurements using video imaging (ContractilityTool / MUSCLEMOTION); format: cell-based, human; details: Homo sapiens, Cardiomyocyte, 0.5 h, 30 min, delta over DMSO 0.1%
Method: (§1) Cardiomyocytes (FUJIFILM Cellular Dynamics, Madison, WI, USA) were kept at −190 °C and prepared for culture as per the manufacturer’s instructions.
(§2) Standard fibronectin vs. Matrix Plus well coating: The cells were cultured using two different coatings in a humidified incubator at 37 °C with 5% CO2. First, 96-well glass-bottomed plates (MatTek, Ashland, MA) were coated with fibronectin ([…] in PBS supplemented with Ca^2+ and Mg^2+; Sigma, St. Louis, MO, USA) (defining FM). Second, CELLvo^TM Matrix Plus (StemBioSys, San Antonio, TX, USA), which were pre-coated on 96 well glass bottom plates and kept at 4 °C. On the day of plating, CELLvo^TM Matrix Plus plates were transferred to room temperature, rehydrated with phosphate buffer saline (PBS), incubated for 1 h at 37 °C, and washed 2× with PBS. Cells were introduced at a density of 50,000 cells/well to allow the formation of a confluent monolayer in each well (defined as MM). The maintenance protocols followed the manufacturer’s instructions and used the iCell^2 Cardiomyocytes Maintenance media for media changes every 2 days. Experiments were performed between days 5 and 6, as recommended by the manufacturers. Before beginning an experiment, cells were washed in serum-free media (SF media) (Fluorobrite DMEM, Gibco, Thermo Fisher Scientific, Horsham, UK).
(§3) The drug powders were dissolved in DMSO, and four stock concentrations at 1000× the final target concentration were prepared in DMSO. For the experiment, an intermediate concentration 2× the target solution was prepared in SF media. The addition of drugs to the cells was accomplished by replacing 50% of the well volume with the intermediate 2× solution. The same procedure was done for vehicle control using DMSO. The experimental number n = 8/concentration/testing compound in the FM or MM condition, and n = 36 for each positive or negative control in the FM or MM condition.
(§4) The dye FluoVolt is loaded into the surface membrane (outer leaflet), and the dye remains within the membrane for many dots, allowing intermittent voltage measurements over the experimental period. In this study, measurements were restricted to within 30 mins of application of the drug. The measurements were made on the same area before/after drug/DMSO addition. […] Baseline spontaneous electrical activity and the associated contractility signal were recorded by capturing 10 s segments of fluorescent signal and video for 2D plates and 15 s for organoids from each well prior to compound addition. Drugs were tested at four concentrations in n = 8 independent replicates (i.e., 8 wells from a single plating) at each concentration. A vehicle control was included for each drug. A 10 s or 15 s recording was then taken 30 min after exposure to the drug or vehicle with only one concentration applied/well. Offline analysis was performed using proprietary software (CellOPTIQ®).
Short periods (10 s or 15 s) of video were analyzed using the ContractilityTool application (developed by F.L. Burton), which is an implementation of the MUSCLEMOTION algorithm.

[2] = test system: hiPSC-CMs (iCell2 Cardiomyocytes) 2D monolayers; test: Membrane potential (action potential) recordings with FluoVolt voltage-sensitive dye on the CellOPTIQ platform; format: cell-based, human; details: for activity at 3 µM / activity at 0.1 µM / activity at 0.3 µM / activity at 1 µM: Homo sapiens, Cardiomyocyte, 0.5 h, 30 min, delta over DMSO 0.1%
Method: as §1, §2, §3
Cultures of hiPSC-CMs (5–6 days post-plating) were treated with FluoVolt dye (1:1000, Invitrogen, Cat# F10488) in SF media and incubated for 20 min at 37 °C with 5% CO2 and 80% humidity. Multi-well plates were placed in the environmentally controlled stage incubator (37 °C, 5% CO2, water-saturated air atmosphere) (Okolab Inc. Burlingame, CA) of the CellOPTIQ® platform (Clyde Biosciences Ltd., Glasgow, Scotland). The FluoVolt signal was recorded from a 0.2 mm × 0.2 mm area using a 40× (numerical aperture: NA 0.6) Excitation wavelength was 470 ± 10 nm using a light-emitting diode (LED), and emitted light was collected by two photomultipliers (PMTs) at 510–560 nm (channel 1) and 590–650 nm (channel 2), respectively. LED, PMT, and associated power supplies and amplifiers were supplied by Cairn Research Ltd. (Kent, UK) and digitized at 10 kHz and stored on a computer hard drive. In the case of FluoVolt-based action potential recordings, the short wavelength (channel 1, […]) was analyzed for action potential features.
as §4, with “applied/well.” for “applied/well. Offline analysis was performed using proprietary software (CellOPTIQ®).”

[3] = FM monolayer, read-out: CtAmp (%DD)
[4] = FM monolayer, read-out: CtD50 (%DD)
[5] = MM monolayer, read-out: CtAmp (%DD)
[6] = MM monolayer, read-out: CtD50 (%DD)
[7] = MM monolayer, read-out: APD30 (%DD)
[8] = MM monolayer, read-out: APD90 (%DD)
[9] = MM monolayer, read-out: CL (%DD)
[10] = MM monolayer, read-out: Trise (%DD)
[11] = read-out: APD30 (%DD), FM monolayer
[12] = read-out: APD90 (%DD), FM monolayer
[13] = read-out: CL (%DD), FM monolayer
[14] = read-out: Trise (%DD), FM monolayer

SMILES: O=C1CCCN1CC#CCN1CCCC1 [Oxotremorine]
- activity at 0.1 µM [1, 3]: 140 ± 19.7%
- activity at 0.1 µM [1, 4]: 108 ± 1.9%
- activity at 0.3 µM [1, 3]: 105 ± 16.5%
- activity at 0.3 µM [1, 4]: 112 ± 2.5%
- activity at 1 µM [1, 3]: 117 ± 14.5%
- activity at 1 µM [1, 4]: 116 ± 2.8%
- activity at 3 µM [1, 3]: 166 ± 17.6%
- activity at 3 µM [1, 4]: 110 ± 1.6%
- activity at 0.1 µM [1, 5]: 106 ± 11.7%
- activity at 0.1 µM [1, 6]: 116 ± 2.1%
- activity at 0.3 µM [1, 5]: 97 ± 12.9%
- activity at 0.3 µM [1, 6]: 117 ± 1.1%
- activity at 1 µM [1, 5]: 105 ± 10.2%
- activity at 1 µM [1, 6]: 118 ± 1.6%
- activity at 3 µM [1, 5]: 103 ± 7.4%
- activity at 3 µM [1, 6]: 120 ± 2.3%
- activity at 3 µM ([2]; FM monolayer, read-out: Trise (%DD)): 132 ± 11.2%
- activity at 0.1 µM [2, 7]: 104 ± 1.7%
- activity at 0.1 µM [2, 8]: 104 ± 1%
- activity at 0.1 µM [2, 9]: 111 ± 2.8%
- activity at 0.1 µM [2, 10]: 124 ± 18.7%
- activity at 0.3 µM [2, 7]: 110 ± 3.4%
- activity at 0.3 µM [2, 8]: 108 ± 1.1%
- activity at 0.3 µM [2, 9]: 115 ± 3.3%
- activity at 0.3 µM [2, 10]: 144 ± 26.3%
- activity at 1 µM [2, 7]: 110 ± 2.8%
- activity at 1 µM [2, 8]: 114 ± 1.1%
- activity at 1 µM [2, 9]: 120 ± 1.4%
- activity at 1 µM [2, 10]: 117 ± 17%
- activity at 3 µM [2, 7]: 115 ± 3.8%
- activity at 3 µM [2, 8]: 113 ± 1.2%
- activity at 3 µM [2, 9]: 123 ± 1.1%
- activity at 3 µM [2, 10]: 158 ± 32%
- activity at 0.1 µM [2, 11]: 106 ± 2.3%
- activity at 0.3 µM [2, 11]: 111 ± 3.3%
- activity at 1 µM [2, 11]: 110 ± 4.4%
- activity at 3 µM [2, 11]: 107 ± 3.4%
- activity at 0.1 µM [2, 12]: 103 ± 1.3%
- activity at 0.3 µM [2, 12]: 105 ± 2.8%
- activity at 1 µM [2, 12]: 111 ± 1.7%
- activity at 3 µM [2, 12]: 101 ± 2.8%
- activity at 0.1 µM [2, 13]: 117 ± 1.3%
- activity at 0.3 µM [2, 13]: 122 ± 1.8%
- activity at 1 µM [2, 13]: 121 ± 2.9%
- activity at 3 µM [2, 13]: 111 ± 3.6%
- activity at 0.1 µM [2, 14]: 155 ± 41.3%
- activity at 0.3 µM [2, 14]: 145 ± 24.3%
- activity at 1 µM [2, 14]: 117 ± 13.3%
- effect on beating rate / spontaneous rate (in words) ([2]; both FM and MM, concentration not given): decrease
- changes in the APD ([2]; both groups (FM and MM)): < 10%
